# Active and inactive are the calls of the source. The rule behind the calls is not given here.
# Assays:
# [1] = system: Vesicular stomatitis virus; experiment: Antiviral activity against VSV infected in human HeLa cells assessed as inhibition of viral-induced cytopathogenicity; assay type: functional, organism-based
# Sindbis virus = experiment: Antiviral activity against Sindbis virus infected in african green monkey Vero cells assessed as inhibition of viral-induced cytopathogenicity; assay type: functional, organism-based
# [2] = system: Respiratory syncytial virus; experiment: Antiviral activity against RSV infected in human HeLa cells assessed as inhibition of viral-induced cytopathogenicity; assay type: functional, organism-based
# Human alphaherpesvirus 1 [3] = experiment: Antiviral activity against ACV-resistant TK-deficient HSV-1 KOS infected in HEL cells assessed as inhibition of viral-induced cytopathogenicity; assay type: functional, organism-based; conditions: Human alphaherpesvirus 1, KOS
# [4] = system: Human immunodeficiency virus 1; experiment: Antiviral activity against HIV-1 infected in human MT-4 cells assessed as inhibition of viral-induced cytopathogenicity after 4 days by MTT assay; assay type: functional, organism-based; conditions: Human immunodeficiency virus 1, MT4, 96 h
# Feline coronavirus = experiment: Antiviral activity against Feline coronavirus infected in CrFK cells assessed as inhibition of viral-induced cytopathogenicity; assay type: functional, organism-based
# Influenza A virus [5] = experiment: Antiviral activity against Influenza A virus H1N1 infected in MDCK cells assessed as inhibition of viral-induced cytopathogenicity; assay type: functional, organism-based
# Human alphaherpesvirus 1 [6] = experiment: Antiviral activity against HSV-1 KOS infected in HEL cells assessed as inhibition of viral-induced cytopathogenicity; assay type: functional, organism-based; conditions: Human alphaherpesvirus 1, KOS
# Human respirovirus 3 = experiment: Antiviral activity against Parainfluenza-3 virus infected in african green monkey Vero cells assessed as inhibition of viral-induced cytopathogenicity; assay type: functional, organism-based
# Influenza B virus = experiment: Antiviral activity against influenza B virus infected in MDCK cells assessed as inhibition of viral-induced cytopathogenicity; assay type: functional, organism-based
# Influenza A virus [7] = experiment: Antiviral activity against Influenza A virus H3N2 infected in MDCK cells assessed as inhibition of viral-induced cytopathogenicity; assay type: functional, organism-based
# [8] = system: Mammalian orthoreovirus 1; experiment: Antiviral activity against Reovirus-1 infected in african green monkey Vero cells assessed as inhibition of viral-induced cytopathogenicity; assay type: functional, organism-based
# Punta Toro virus = experiment: Antiviral activity against Punta Toro virus infected in african green monkey Vero cells assessed as inhibition of viral-induced cytopathogenicity; assay type: functional, organism-based
# [9] = Cytotoxicity against human HEL cells assessed as changes in cell morphology by microscopy; assay type: cell-based
# MT4 = experiment: (§1) Cytotoxicity against human MT4 cells after 4 days by MTT assay; assay type: cell-based; conditions: mt4, 96 h
# Coxsackievirus B4 = experiment: Antiviral activity against Coxsackie B4 virus infected in african green monkey Vero cells assessed as inhibition of viral-induced cytopathogenicity; assay type: functional, organism-based
# Felid alphaherpesvirus 1 = experiment: Antiviral activity against Feline herpes virus infected in CrFK cells assessed as inhibition of viral-induced cytopathogenicity; assay type: functional, organism-based
# Human alphaherpesvirus 2 = experiment: Antiviral activity against HSV-2 G infected in HEL cells assessed as inhibition of viral-induced cytopathogenicity; assay type: functional, organism-based; conditions: Human alphaherpesvirus 2, strain G
# [10] = Selectivity index, ratio of CC50 for human MT-4 cells to EC50 for HIV-1; assay type: toxicity, cell-based, MT4; conditions: read-out: Ratio CC50/EC50
# [11] = Selectivity index, ratio of MCC for human HEL cells to EC50 for HSV-1 KOS
# [12] = Selectivity index, ratio of MCC for human HEL cells to EC50 for HSV-2 G
# [13] = as §1; assay type: cell-based; conditions: MT4 cells
Structure (SMILES),Activity [1],Activity (Sindbis virus),Activity [2],EC50 (Human alphaherpesvirus 1 [3]) [nM],EC50 [4] [nM],Activity (Feline coronavirus),Activity (Influenza A virus [5]),EC50 (Human alphaherpesvirus 1 [6]) [nM],Activity (Human respirovirus 3),Activity (Influenza B virus),Activity (Influenza A virus [7]),Activity [8],Activity (Punta Toro virus),MCC [9] [µM],CC50 (MT4) [nM],Activity (Coxsackievirus B4),Activity (Felid alphaherpesvirus 1),EC50 (Human alphaherpesvirus 2) [nM],selectivity ratio [10],other results
C#C[C@]1(CO)S[C@@H](n2cnc3c(N)ncnc32)C[C@@H]1O,inactive,inactive,inactive,8000,87,inactive,inactive,7000,inactive,inactive,inactive,inactive,inactive,> 100,> 20000,inactive,inactive,4000,> 230,–
C#C[C@]1(CO)O[C@@H](n2ccc(N)nc2=O)C[C@@H]1O,inactive,inactive,inactive,–,4.8,inactive,–,–,inactive,–,–,inactive,inactive,–,–,inactive,inactive,–,–,–
Nc1nc2c(ncn2COC(CO)CO)c(=O)[nH]1 [GANCICLOVIR],–,–,–,–,–,–,–,–,–,–,–,–,–,> 100,–,–,–,–,–,–
C#C[C@]1(CO)S[C@@H](n2ccc(N)nc2=O)C[C@@H]1O,inactive,inactive,inactive,2500,11,inactive,inactive,2000,inactive,inactive,inactive,inactive,inactive,> 100,6000,inactive,inactive,1500,545,Selectivity Index [11]: >50; Selectivity Index [12]: >50
C#C[C@]1(CO)O[C@@H](n2cnc3c(N)ncnc32)C[C@@H]1O,inactive,inactive,inactive,–,9.8,inactive,inactive,–,inactive,inactive,inactive,inactive,inactive,–,–,inactive,inactive,–,1630,CC50 at 96 h [13]: 16000 nM
C#C[C@]1(CO)O[C@@H](n2cnc3c(=O)[nH]c(N)nc32)C[C@@H]1O,inactive,inactive,inactive,–,1.5,inactive,inactive,–,inactive,inactive,inactive,inactive,inactive,–,–,inactive,inactive,–,933,CC50 at 96 h [13]: 1400 nM
C#C[C@]1(CO)S[C@@H](n2cnc3c(=O)[nH]c(N)nc32)C[C@@H]1O,inactive,inactive,inactive,4500,5.5,inactive,inactive,3000,inactive,inactive,inactive,inactive,inactive,> 100,> 100000,inactive,inactive,1500,> 18200,Selectivity Index [11]: >50; Selectivity Index [12]: >50

# — ChEMBL document CHEMBL2010784 (ACS Med Chem Lett, 2011)
